One assay concerns BMP-2 promoter. As to the kind of experiment: BMP-2 luciferase assay (BMP-2 gene reporter assay, bone formation). It is filed as cell-based. The settings on record: 10^−6M; result in words. The protocol:
BMP-2 luciferase assay—The activity of the extracts was determined using 2T3 cells containing the BMP-2 promoter operatively linked to the luciferase gene. An increase in luciferase activity in cell lysates reflects an increase in BMP-2 promoter activity. The extracts were assayed at an initial dilution of 100 μg/ml with ½ dilutions down to 0.2 μg/ml. BMP-2 promoter activity was measured by measuring the luciferase activity in cell extracts.
(In general: In a reporter assay the amount or activity of a reporter protein is the signal.)

A further assay deals with BMP-2. As to the kind of experiment: Endogenous BMP-2 mRNA expression in hPOB-tert cells by RT-PCR. It is filed as cell-based, human. The settings on record: 0.5 μg/ml, positive control. The protocol:
The plants found positive for BMP-2 induction in example 1 were further tested in a human periosteal/preosteoblast cell line, hPOB-tert for their ability to induce the endogenous expression of BMP-2. This test in osteoblast cells confirmed the results shown in example 1.
[…] Total RNA was extracted with TRIzol Reagent (Gibco). 10 μg RNA were reverse transcribed using the 1st Strand cDNA Synthesis Kit (Boehringer). BMP-2 cDNA sequences were amplified for 35 cycles at an annealing temperature of 55° C. using specific oligonucleotide primers (5′: […]; 3′: […]). PCR products were separated by agarose gel electrophoresis and detected by ethidium bromide staining. Quantification was performed using NIH Image Software and normalizing results with Actin as house-keeping gene.

Consider three compounds from patent US20050079232A1, “Composition for promotion of bone growth and maintenance of bone health” (priority 2001, published 2005).

Structures are written as SMILES.

Consider `O=c1c(-c2ccc(O)cc2)coc2cc(O)cc(O)c12` [genistein], for which the “stimulation of BMP-2 (promoter activity)” value in the assay with BMP-2 promoter is on record as “stimulated BMP-2”.

Turning to `O=c1c(-c2ccc(O)cc2)coc2cc(O)ccc12` [daidzein], in the assay with BMP-2 promoter, the “stimulation of BMP-2 (promoter activity)” value is “stimulated BMP-2”.

As to `CC[C@H](C)C(=O)O[C@H]1C[C@@H](C)C=C2C=C[C@H](C)[C@H](CC[C@@H]3C[C@@H](O)CC(=O)O3)[C@H]21` [lovastatin], the “induction of BMP-2” value with BMP-2 stood at 2.5 fold.
